A short description of data set [1]: solubility of pesticide actives in dialkyl carbonate solvents (CIPAC method MT181). The class given is physicochemical. To be noted: 20 deg C.; for solubility in Bis-(2-ethylhexyl) carbonate solvent: Bis-(2-ethylhexyl) carbonate solvent (comparative). An excerpt: All solubility measurements are done according to the CIPAC method MT181.
A short description of data set [2]: phytotoxic properties of dialkyl carbonates. The text has this:
A further advantage of the dialkylcarbonates used, is their compatibility with construction materials used in spraying equipment.

The structures appear in SMILES notation. A value given as a limit tells only on which side of the number the result lay.

Consider `Fc1ccc([C@]2(Cn3cncn3)O[C@H]2c2ccccc2Cl)cc1` (racemic) [Epoxiconazole], for which, in data set [1], the “solubility in Bis-(2-ethylhexyl) carbonate solvent” value was under 10 grams/litre, the “SOLUBILITY OF PESTICIDE ACTIVES IN di-n-butylcarbonate (DNBC) SOLVENT” value was 45 grams/litre and the “solubility in di-n-pentyl carbonate solvent” value is 20-25 grams/litre.

Take `CCNc1nc(NC(C)C)nc(SC)n1` [Ametryn]: in data set [1], the “solubility in Bis-(2-ethylhexyl) carbonate solvent” value is 80-100 grams/litre, the “SOLUBILITY OF PESTICIDE ACTIVES IN di-n-butylcarbonate (DNBC) SOLVENT” value came out at 350 grams/litre, the “solubility in di-n-pentyl carbonate solvent” value is 120 grams/litre and the “SOLUBILITY OF PESTICIDE ACTIVES IN di-n-propylcarbonate (DNPC) SOLVENT” value was over 250 grams/litre.

On to `O=C(Nc1ccc(F)cc1F)c1cccnc1Oc1cccc(C(F)(F)F)c1` [Diflufenican], for which, in data set [1], the “solubility in Bis-(2-ethylhexyl) carbonate solvent” value is listed as under 10 grams/litre, the “SOLUBILITY OF PESTICIDE ACTIVES IN di-n-butylcarbonate (DNBC) SOLVENT” value is on record as under 50 grams/litre and the “solubility in di-n-pentyl carbonate solvent” value was 14-20 grams/litre.

Turning to `CCc1cccc(C)c1N(C(=O)CCl)C(C)COC` (centres unmarked) [Metolachlor], in data set [1], the “solubility in Bis-(2-ethylhexyl) carbonate solvent” value is recorded as over 200 grams/litre, the “SOLUBILITY OF PESTICIDE ACTIVES IN di-n-butylcarbonate (DNBC) SOLVENT” value was over 600 grams/litre and the “solubility in di-n-pentyl carbonate solvent” value is recorded as over 200 grams/litre.

Turning to `CCC(CC)Nc1c([N+](=O)[O-])cc(C)c(C)c1[N+](=O)[O-]` [Pendimethalin], in data set [1], the “solubility in Bis-(2-ethylhexyl) carbonate solvent” value is given as 80-100 grams/litre, the “SOLUBILITY OF PESTICIDE ACTIVES IN di-n-butylcarbonate (DNBC) SOLVENT” value was over 300 grams/litre, the “solubility in di-n-pentyl carbonate solvent” value is listed as over 100 grams/litre and the “SOLUBILITY OF PESTICIDE ACTIVES IN di-n-propylcarbonate (DNPC) SOLVENT” value was over 300 grams/litre.

Regarding `CC(C)(C)C(O)(CCc1ccc(Cl)cc1)Cn1cncn1` (centres unmarked) [Tebuconazole], in data set [1], the “solubility in Bis-(2-ethylhexyl) carbonate solvent” value is under 10 grams/litre, the “SOLUBILITY OF PESTICIDE ACTIVES IN di-n-butylcarbonate (DNBC) SOLVENT” value is 140 grams/litre, the “solubility in di-n-pentyl carbonate solvent” value is on record as 33-40 grams/litre and the “SOLUBILITY OF PESTICIDE ACTIVES IN di-n-propylcarbonate (DNPC) SOLVENT” value is recorded as over 100 grams/litre.

Regarding `CC(C)(C)C(O)C(Oc1ccc(Cl)cc1)n1cncn1` (centres unmarked) [Triadimenol], in data set [1], the “solubility in Bis-(2-ethylhexyl) carbonate solvent” value is recorded as under 10 grams/litre, the “SOLUBILITY OF PESTICIDE ACTIVES IN di-n-butylcarbonate (DNBC) SOLVENT” value stood at 45 grams/litre and the “solubility in di-n-pentyl carbonate solvent” value is recorded as 20-25 grams/litre.

Take `CCCN(CCC)c1c([N+](=O)[O-])cc(C(F)(F)F)cc1[N+](=O)[O-]` [Trifluralin]: in data set [1], the “solubility in Bis-(2-ethylhexyl) carbonate solvent” value is listed as 80-100 grams/litre, the “SOLUBILITY OF PESTICIDE ACTIVES IN di-n-butylcarbonate (DNBC) SOLVENT” value was over 600 grams/litre, the “solubility in di-n-pentyl carbonate solvent” value was over 250 grams/litre and the “SOLUBILITY OF PESTICIDE ACTIVES IN di-n-propylcarbonate (DNPC) SOLVENT” value is listed as over 600 grams/litre.

On to `CCCCOC(=O)OCCCC` [di-n-butyl carbonate, di-n-butylcarbonate], for which the phytotoxicity result in data set [2] is “not to be phytotoxic”.

For the origin of these results see US20130130912A1, “AGROCHEMICAL FORMULATION COMPOSITION” (priority 2010, published 2013).
